Data on 4 compounds can be found in ChEMBL document CHEMBL5120901, “Batatasin III, a Constituent of Dendrobium scabrilingue, Improves Murine Pain-like Behaviors with a Favorable CNS Safety Profile” (J Nat Prod, 2022).

Calls of active or inactive are those of the source. The calls are words filed in the database; no cut-off is given here.

For data set [1], the system named is BV-2. In words: Anti-inflammartory activity against LPS-activated […] cells assessed as reduction in IL-6 levels at 50 uM pretreated with compound for 1 hr followed by co-incubation with LPS for 24 hrs by ELISA. The class given is functional, cell-based. Particulars: Mus musculus, time 25.0 hrs.
Data set [2] has as its system BV-2. Put plainly: Anti-inflammatory activity in […] cells assessed as inhibition of LPS-induced NO production at 50 uM pretreated with compound for 1 hr followed by coincubation with LPS for 24 hrs by Griess reagent based analysis. Type of data set: functional, cell-based. The following applies: Mus musculus, time 25.0 hrs.
Data set [3] relates to BV-2. Put plainly: Anti-inflammartory activity against LPS-activated […] cells assessed as reduction in TNF-alpha levels at 50 uM pretreated with compound for 1 hr followed by co-incubation with LPS for 24 hrs by ELISA. Type of data set: functional, cell-based. The following applies: Mus musculus, time 25.0 hrs.
In data set [4] the test system is RAW264.7. In words: Anti-inflammartory activity in mouse RAW264.7 cells assessed as inhibition of LPS-induced NO production at 50 uM pretreated with compound for 1 hr followed by incubation with LPS for 12 hrs by Griess reagent based analysis. Particulars: time 13.0 hrs. Type of data set: functional, cell-based.
For data set [5], the system named is RAW264.7. In words: Anti-inflammartory activity against LPS-activated mouse RAW264.7 cells assessed as reduction in IL-6 levels at 50 uM pretreated with compound for 1 hr followed by incubation with LPS for 12 hrs by ELISA. The class given is functional, cell-based. Particulars: time 13.0 hrs.
Data set [6] has as its system RAW264.7. In words: Anti-inflammartory activity against LPS-activated mouse RAW264.7 cells assessed as reduction in TNF-alpha levels at 50 uM pretreated with compound for 1 hr followed by incubation with LPS for 12 hrs by ELISA. The class given is functional, cell-based. The following applies: time 13.0 hrs.
Data set [7] is described as follows: CNS toxicity in naive ICR mouse assessed as reduction in spontaneous locomotor activity by measuring reduction in climbing behaviour at 5 mg/kg, ip and measured for 30 mins by LABORAS automated behavioral analysis. The class given is organism-based. The following applies: in vivo, 0.5 h.
Data set [8] can be described thus: CNS toxicity in naive ICR mouse assessed as reduction in spontaneous locomotor activity by measuring reduction in rearing behaviour at 5 mg/kg, ip and measured for 30 mins by LABORAS automated behavioral analysis. The class given is organism-based. The following applies: in vivo, 0.5 h.
A short description of data set [9]: CNS toxicity in naive ICR mouse assessed as reduction in spontaneous locomotor activity by measuring reduction in distance travelled in arena at 5 mg/kg, ip and measured for 2 hrs by LABORAS automated behavioral analysis. The following applies: in vivo. The class given is organism-based.
Data set [10] can be described thus: CNS toxicity in naive ICR mouse assessed as reduction in spontaneous locomotor activity by measuring reduction in animal's movement speed in arena at 5 mg/kg, ip and measured for 30 mins by LABORAS automated behavioral analysis. Type of data set: organism-based. Particulars: in vivo, 0.5 h.
Data set [11] in a line: CNS toxicity in naive ICR mouse assessed as reduction in rotarod latency time at 5 mg/kg, ip measured at <240 mins by rotarod test. The class given is organism-based. Particulars: in vivo, 4 h.
Data set [12] is described as follows: CNS toxicity in naive ICR mouse assessed as reduction in spontaneous locomotor activity at 5 mg/kg, ip and measured for 30 mins by LABORAS automated behavioral analysis. Type of data set: organism-based. Particulars: in vivo, 0.5 h.
The nature of data set [13]: CNS toxicity in naive ICR mouse assessed as reduction in spontaneous locomotor activity at 5 mg/kg, ip and measured for 2 hrs by LABORAS automated behavioral analysis. The class given is organism-based. Particulars: in vivo.
The nature of data set [14]: CNS toxicity in naive ICR mouse assessed as reduction in spontaneous locomotor activity by measuring reduction in distance travelled in arena at 5 mg/kg, ip and measured for 30 mins by LABORAS automated behavioral analysis. The class given is organism-based. The following applies: in vivo, 0.5 h.
The nature of data set [15]: CNS toxicity in naive ICR mouse assessed as reduction in spontaneous locomotor activity by measuring increase in immobility behaviour at 5 mg/kg, ip and measured for 30 mins by LABORAS automated behavioral analysis. The class given is organism-based. Particulars: in vivo, 0.5 h.
Data set [16] is described as follows: CNS toxicity in naive ICR mouse assessed as reduction in spontaneous locomotor activity by measuring increase in immobility behaviour at 5 mg/kg, ip and measured for 2 hrs by LABORAS automated behavioral analysis. The class given is organism-based. Particulars: in vivo.
Data set [17] is described as follows: CNS toxicity in naive ICR mouse assessed as reduction in spontaneous locomotor activity by measuring reduction in rearing behaviour at 5 mg/kg, ip and measured for 2 hrs by LABORAS automated behavioral analysis. Type of data set: organism-based. Particulars: in vivo.
The nature of data set [18]: CNS toxicity in naive ICR mouse assessed as reduction in spontaneous locomotor activity by measuring reduction in animal's movement speed in arena at 5 mg/kg, ip and measured for 2 hrs by LABORAS automated behavioral analysis. Type of data set: organism-based. The following applies: in vivo.
Data set [19] in a line: CNS toxicity in naive ICR mouse assessed as motor coordination at 5 mg/kg, ip measured after 240 mins by rotarod test. The following applies: in vivo, 4 h. Type of data set: organism-based.
A short description of data set [20]: CNS toxicity in naive ICR mouse assessed as reduction in spontaneous locomotor activity by measuring reduction in climbing behaviour at 5 mg/kg, ip and measured for 2 hrs by LABORAS automated behavioral analysis. Type of data set: organism-based. Particulars: in vivo.
Data set [21] has as its system Mus musculus. In words: Anti-inflammatory activity against LPS-induced inflammatory pain-like behaviour ICR mouse model assessed as improvement in locomotor activity by measuring increased mobile behaviours at 10 mg/kg, ip treated with LPS for 2 hrs followed by drug administration for 1 hr and measured for 5 mins by LABORAS analysis. The following applies: time 65.0 min. Type of data set: functional, organism-based.

Data set [22] concerns Mus musculus. Put plainly: Anti-inflammatory activity against LPS-induced inflammatory pain-like behaviour ICR mouse model assessed as improvement in locomotor activity by measuring increase in animal's movement speed in LABORAS arena at 10 mg/kg, ip treated with LPS for 2 hrs followed by drug administration for 1 hr and measured for 5 mins by LABORAS analysis. Particulars: time 65.0 min. The class given is functional, organism-based.

In data set [23] the test system is Mus musculus. Put plainly: Anti-inflammatory activity against LPS-induced inflammatory pain-like behaviour ICR mouse model assessed as improvement in locomotor activity by measuring decrease in immobility behaviour at 10 mg/kg, ip treated with LPS for 2 hrs followed by drug administration for 1 hr and measured for 5 mins by LABORAS analysis. Type of data set: functional, organism-based. The following applies: time 65.0 min.

Data set [24] concerns Mus musculus. In words: Anti-inflammatory activity against LPS-induced inflammatory pain-like behaviour ICR mouse model assessed as reduction in IL-6 levels in plasma at 10 mg/kg, ip treated with LPS for 2 hrs followed by drug administration for 1 hr by ELISA. The class given is functional, organism-based.
For data set [25], the system named is Mus musculus. Put plainly: Anti-inflammatory activity against LPS-induced inflammatory pain-like behaviour ICR mouse model assessed as reduction in TNF-alpha levels in plasma at 10 mg/kg, ip treated with LPS for 2 hrs followed by drug administration for 1 hr by ELISA. The class given is functional, organism-based.
Data set [26] relates to Mus musculus. Put plainly: Anti-inflammatory activity against LPS-induced inflammatory pain-like behaviour ICR mouse model assessed as improvement in locomotor activity by measuring increase in distance travelled in LABORAS arena at 10 mg/kg, ip treated with LPS for 2 hrs followed by drug administration for 1 hr and measured for 5 mins by LABORAS analysis. The following applies: time 65.0 min. The class given is functional, organism-based.

The subject of data set [27] is Mus musculus. Put plainly: Analgesic activity against formalin-induced inflammatory pain-like behaviour ICR mouse model assessed as inhibition of hind paw licking behaviour at 10 mg/kg, ip administered 60 mins prior to formalin challenge and measured after 10 to 40 mins by formalin test. Type of data set: functional. The following applies: time 70-100 min.

Turning to `CN(C)c1ccc(O)c2c1C[C@H]1C[C@H]3[C@H](N(C)C)C(O)=C(C(N)=O)C(=O)[C@@]3(O)C(O)=C1C2=O`, the result with BV-2 [1], in the data set with BV-2 [2] and with BV-2 [3] was Active.

Consider `C[C@@H]1C[C@H]2[C@@H]3CCC4=CC(=O)C=C[C@]4(C)[C@@]3(F)[C@@H](O)C[C@]2(C)[C@@]1(O)C(=O)CO`, for which the result in the data set with RAW264.7 [4], with RAW264.7 [5] and with RAW264.7 [6] was Active.

Take `CN(C)CCCN1c2ccccc2Sc2ccc(Cl)cc21` [CHLORPROMAZINE]: the Activity result in data set [7], in [8], in [9], in [10], in data set [11] and in data set [12] was “Toxic” throughout. Moreover, the Activity entry in data set [13], in [14], in [15], in data set [16], in data set [17] and in [18] was “Toxic” each time. For the same compound, the results for the Activity entry in data set [19] and in [20] were “Non-Toxic” and “Toxic”, respectively.

For `COc1ccc2c(c1)c(CC(=O)O)c(C)n2C(=O)c1ccc(Cl)cc1` [INDOMETHACIN], the outcome in the data set with Mus musculus [21], with Mus musculus [22], in the data set on Mus musculus [23], in the data set on Mus musculus [24], in the data set with Mus musculus [25] and in the data set on Mus musculus [26] was Active. Moreover, in the data set on Mus musculus [27], the inhibition in vivo at 10 mg/kg was determined as 71.6%.
